The text below walks through data of PMC7006816, “Human β-Defensin 2 Mediated Immune Modulation as Treatment for Experimental Colitis” (Frontiers in Immunology, 2020).

One assay deals with murine BM-DC's. Description: Flow cytometry of BM-DCs (p-NF-κB, p-CREB, MHCII, CD86). It counts as cell-based, mouse. To be noted: LPS + hBD2 100 μg/ml, flow cytometry, n = 6. As for the experimental part:
BM-DC's were generated using granulocyte-macrophage colony-stimulating factor (GM-CSF) and RPMI-1640 medium (Merck) supplemented with 10% fetal calf serum (FBS; Life Technologies), 2 mM glutamine (Thermo Fisher), 100 U/ml penicillin/streptomycin (Gibco), 50 μM 2-mercaptoethanol (Roth), 1 mM sodium pyruvate (Biochrome), and 1x non-essential amino acids (Biochrome) as previously described ([28]). Shortly, 2 × 10^6 bone marrow cells flushed from the tibias and femurs of C57BL/6 mice were seeded in dishes containing 200 U/ml GM-CSF. After 3 days extra medium containing GM-CSF was added to the cells and on day 6 half of the medium was replaced by fresh […] containing GM-CSF. After 7 or 8 days slightly attached cells were harvested. Female C57BL/6JolaHsd mice were purchased from Janvier (St. Berthevin Cedex, France). Animal experiments were performed in strict accordance with the German regulations of the Society for Laboratory Animal Science (GV-SOLAS) and the European Health Law of the Federation of Laboratory Animal Science Associations (FELASA). The protocol was approved by the Regierungspräsidium Tübingen (Anzeige 09.01.2014).
2 × 10^5 murine BM-DC's were seeded in 96-well round bottom plates and treated as described above. Cells were removed from the plate using Accutase (Sigma-Aldrich) and stained for 20 min at room temperature with Zombie Aqua (Biolegend) to exclude dead cells and extracellular antibodies against CD11c-APC (N418) (Miltenyi), MHCII-FITC (M5/114.15.2) (Miltenyi) and CD86-BV421 (GL-1) (Biolegend). For p-CREB staining cells were fixed and permeabilized with Foxp3 Staining Buffer Set (eBioscience) and stained with primary antibody phosphor-CREB mAb (Ser133; clone 87G3) (Cell Signaling) for 30 min in the dark at room temperature followed by secondary goat anti-rabbit IgG-DyLight™649 (Jackson ImmunoResearch) for 15 min at 4°C. To detect intracellular p-NF-κB BM-DCs were fixed with 2% paraformaldehyde (VWR) in PBS, permeabilized with 90% freezing methanol (Applichem) and stained with the primary antibodies to phosphor-NF-κB p65 (93H1) (Cell Signaling) for 60 min in the dark at room temperature followed by goat anti-rabbit IgG-PE-Cy7 (Santa Cruz Biotechnology) for 15 min at 4°C. PBS with 0,5% bovine serum albumin (Biomol) was used for all incubations and washing steps. At least 50,000 cells were acquired using a Canto-II flow cytometer (BD […]) with DIVA software (BD Biosciences) and were further analyzed using FlowJo 10.5 software (Tree Star).

The subject of another assay is human Mo-DC's. In words: Cytokine production by human Mo-DC's. It counts as cell-based. Particulars: hBD2 100 μg/ml or 10 μg/ml, 24 h, ELISA, n = 3. As for the experimental part:
Peripheral blood was drawn from healthy donors and diluted one to one in PBS. The mixture was stacked in a falcon tube on Biocoll separation solution (Biochrome) with a ratio of three parts blood PBS mixture to two parts Biocoll. For a density gradient centrifugation the falcon tubes were centrifuged at 2,000 rpm for 30 min at RT. The PBMC's were removed and washed twice with PBS. 1.5 × 10^6 cells were seeded per well in a tissue culture-treated 6-well plate in RPMI-1640 medium (Merck) supplemented with 10% fetal calf serum (FCS; Sigma-Aldrich), 2 mM L-glutamine (Biochrome), 100 U/ml penicillin/streptomycin (Gibco), 50 μM 2-mercaptoethanol (Fluka), 1 mM sodium pyruvate (Biochrome), and 1x non-essential amino acids (Biochrome) and incubated for 1 h at 37°C and 5% CO2 for monocyte adherence. Then the cells were washed with media and PBS to remove the non-adherent cells and were cultivated for 6 days with media additional supplemented with 50 ng IL-4 and 100 ng GM-CSF (Miltenyi). […]
2 × 10^5 murine BM-DC's or human Mo-DC's were seeded in 96-well round bottom plates. […] 24 h later supernatants were collected and TNF-α [Biolegend (BM-DC's); R&D (Mo-DC's)] was analyzed according to the manufacturer's instructions. IL-10, IL-12, and IL-1β (LEGENDplex Biolegend) was as well-analyzed according to the manufacturer's instructions.

Another assay relates to human primary PBMC's. Description: Stimulation of PBMCs of healthy volunteers with TLR ligands, cytokine release. Particulars: hBD2 100, 40, 10 or 1 μg/ml, 24 h, cytometric bead array. It counts as cell-based. As for the experimental part: Heparinized blood was diluted 1/1 v/v with RPMI (Gibco) and was subjected to Ficoll-Paque Plus (GE healthcare) density centrifugation within 2 h of drawing. Plasma was collected from the top from individual donors and was kept on ice until it was used at 2% in the culture medium (autologous culture medium). Isolated PBMC's were re-suspended in autologous culture medium and seeded in 96-well culture plates with 115.500 cells per well (Figure 1) or 200.000 cells per well (Figure 2) in a total of 200 μl. […] The supernatants were collected after incubation at 37°C for 24 h, and stored at −80°C until cytokine measurement.
The experiment in Figure 1 was performed with healthy volunteers, which were recruited under an approval from the Ethical Committee for Region Capital, Denmark. Interleukin 1β (IL-1β) and tumor necrosis factor alpha (TNF-α) (Figure 1) were quantified in supernatants by flow cytometry using a human inflammation cytometric bead array (CBA) according to manufacturer's instructions (BD) using a FACSarray flow cytometer. IL-1β, TNF- α, Interferon gamma (INF-y), Interleukin 12p70 (IL-12), and Interleukin 23 (IL-23) were analyzed using a human inflammation cytometric bead array (LegendPlex Biolegends) according to manufacturer's instructions.

Where no end group is shown, it is not given here.

As to “human β-defensin 2 (GIGDPVTCLKSGAICHPVFCPRRYKQIGTCGLPGTKCCKKP; not fully specified; ends and bridges not checked) [hBD2, Recombinant human β-defensin 2 expressed in E. coli as his-tagged thioredoxin fusion, cleaved and purified, natural tertiary structure]”, in the assay on murine BM-DC's (60 min), the CREB phosphorylation entry is “increase in CREB phosphorylation” and the NF-κB phosphorylation entry is given as “reduced NF-κB phosphorylation”. Also, the “Maturation status (MHCII and CD86)” value with murine BM-DC's is “reduced maturation status”. In the assay with human Mo-DC's, the “TNF-α production in LPS-challenged human mo-DCs” value was “dose-dependently curbed TNF-α production”. In the assay with human primary PBMC's (LPS 20 pg/ml, n = 150–194), the “Release of IL-1β” value is “consistently mitigated release of both cytokines” and the “Release of TNF-α” value is listed as “consistently mitigated release of both cytokines”. Further, in the assay on human primary PBMC's (Pam3CSK4 0.3 μg/ml), the “Release of IL-1β” value was “significantly reduced” and the “Release of TNF-α” value is “significantly reduced”.
